Source: ChEMBL document CHEMBL4364276, “Discovery of 4-phenyl-2H-benzo[b][1,4]oxazin-3(4H)-one derivatives as potent and orally active PI3K/mTOR dual inhibitors” (Eur J Med Chem, 2019)

Experiments:
[1] = target: Serine/threonine-protein kinase Nek6 (Homo sapiens) (UniProt Q9HC98); assay: Inhibition of human NEK6 at 100 nM using casein as substrate by [gamma-33P]-ATP assay
[2] = target: Protein kinase C beta type (Homo sapiens) (UniProt P05771); assay: Inhibition of human PKCb1 at 100 nM using Histone H1 as substrate by [gamma-33P]-ATP assay
Chain of Protein kinase C beta type (Homo sapiens) (P05771 2-671 limits assumed): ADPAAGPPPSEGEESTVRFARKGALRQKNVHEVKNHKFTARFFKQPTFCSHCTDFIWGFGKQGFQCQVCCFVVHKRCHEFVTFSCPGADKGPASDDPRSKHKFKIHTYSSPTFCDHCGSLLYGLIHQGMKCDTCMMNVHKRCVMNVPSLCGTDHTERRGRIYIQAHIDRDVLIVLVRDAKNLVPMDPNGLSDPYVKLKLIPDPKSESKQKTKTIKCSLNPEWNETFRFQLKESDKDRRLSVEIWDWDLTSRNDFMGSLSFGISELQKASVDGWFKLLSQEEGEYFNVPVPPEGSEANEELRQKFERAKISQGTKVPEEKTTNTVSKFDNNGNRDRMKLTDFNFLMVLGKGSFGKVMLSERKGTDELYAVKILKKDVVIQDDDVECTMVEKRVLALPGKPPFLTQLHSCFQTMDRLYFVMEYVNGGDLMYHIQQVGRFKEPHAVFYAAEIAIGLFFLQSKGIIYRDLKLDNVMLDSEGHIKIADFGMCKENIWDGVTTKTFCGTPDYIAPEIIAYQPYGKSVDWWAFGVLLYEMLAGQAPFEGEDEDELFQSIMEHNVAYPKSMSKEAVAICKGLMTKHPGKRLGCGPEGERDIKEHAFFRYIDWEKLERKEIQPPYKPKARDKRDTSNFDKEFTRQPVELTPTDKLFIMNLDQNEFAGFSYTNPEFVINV

[3] = target: Mitogen-activated protein kinase kinase kinase 10 (Homo sapiens) (UniProt Q02779); assay: Inhibition of human MLK2 at 100 nM using MBP as substrate by [gamma-33P]-ATP assay
[4] = target: NUAK family SNF1-like kinase 2 (Homo sapiens) (UniProt Q9H093); assay: Inhibition of human SNARK at 100 nM using KKKVSRSGLYRSPSMPENLNRPR as substrate by [gamma-33P]-ATP assay
Chain of NUAK family SNF1-like kinase 2 (Homo sapiens) (Q9H093 whole entry): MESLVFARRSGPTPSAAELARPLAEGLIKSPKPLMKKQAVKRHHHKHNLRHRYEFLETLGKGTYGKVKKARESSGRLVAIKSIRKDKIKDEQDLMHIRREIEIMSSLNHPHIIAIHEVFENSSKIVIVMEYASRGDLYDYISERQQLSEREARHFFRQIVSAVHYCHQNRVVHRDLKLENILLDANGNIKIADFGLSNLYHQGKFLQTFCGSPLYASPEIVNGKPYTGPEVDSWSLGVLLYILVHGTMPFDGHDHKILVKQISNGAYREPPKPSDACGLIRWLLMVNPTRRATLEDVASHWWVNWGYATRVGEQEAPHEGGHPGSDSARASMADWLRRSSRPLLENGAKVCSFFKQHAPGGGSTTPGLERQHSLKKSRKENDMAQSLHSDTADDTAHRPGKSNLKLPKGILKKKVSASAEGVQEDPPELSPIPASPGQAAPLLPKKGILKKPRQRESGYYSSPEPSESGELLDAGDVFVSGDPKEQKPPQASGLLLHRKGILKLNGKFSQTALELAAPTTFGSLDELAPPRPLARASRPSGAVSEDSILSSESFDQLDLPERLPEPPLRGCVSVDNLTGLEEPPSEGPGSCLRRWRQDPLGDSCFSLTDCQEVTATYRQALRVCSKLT

[5] = target: Serine/threonine-protein kinase Nek1 (Homo sapiens) (UniProt Q96PY6); assay: Inhibition of human NEK1 at 100 nM using MBP as substrate by [gamma-33P]-ATP assay
Chain of Serine/threonine-protein kinase Nek1 (Homo sapiens) (Q96PY6 whole entry): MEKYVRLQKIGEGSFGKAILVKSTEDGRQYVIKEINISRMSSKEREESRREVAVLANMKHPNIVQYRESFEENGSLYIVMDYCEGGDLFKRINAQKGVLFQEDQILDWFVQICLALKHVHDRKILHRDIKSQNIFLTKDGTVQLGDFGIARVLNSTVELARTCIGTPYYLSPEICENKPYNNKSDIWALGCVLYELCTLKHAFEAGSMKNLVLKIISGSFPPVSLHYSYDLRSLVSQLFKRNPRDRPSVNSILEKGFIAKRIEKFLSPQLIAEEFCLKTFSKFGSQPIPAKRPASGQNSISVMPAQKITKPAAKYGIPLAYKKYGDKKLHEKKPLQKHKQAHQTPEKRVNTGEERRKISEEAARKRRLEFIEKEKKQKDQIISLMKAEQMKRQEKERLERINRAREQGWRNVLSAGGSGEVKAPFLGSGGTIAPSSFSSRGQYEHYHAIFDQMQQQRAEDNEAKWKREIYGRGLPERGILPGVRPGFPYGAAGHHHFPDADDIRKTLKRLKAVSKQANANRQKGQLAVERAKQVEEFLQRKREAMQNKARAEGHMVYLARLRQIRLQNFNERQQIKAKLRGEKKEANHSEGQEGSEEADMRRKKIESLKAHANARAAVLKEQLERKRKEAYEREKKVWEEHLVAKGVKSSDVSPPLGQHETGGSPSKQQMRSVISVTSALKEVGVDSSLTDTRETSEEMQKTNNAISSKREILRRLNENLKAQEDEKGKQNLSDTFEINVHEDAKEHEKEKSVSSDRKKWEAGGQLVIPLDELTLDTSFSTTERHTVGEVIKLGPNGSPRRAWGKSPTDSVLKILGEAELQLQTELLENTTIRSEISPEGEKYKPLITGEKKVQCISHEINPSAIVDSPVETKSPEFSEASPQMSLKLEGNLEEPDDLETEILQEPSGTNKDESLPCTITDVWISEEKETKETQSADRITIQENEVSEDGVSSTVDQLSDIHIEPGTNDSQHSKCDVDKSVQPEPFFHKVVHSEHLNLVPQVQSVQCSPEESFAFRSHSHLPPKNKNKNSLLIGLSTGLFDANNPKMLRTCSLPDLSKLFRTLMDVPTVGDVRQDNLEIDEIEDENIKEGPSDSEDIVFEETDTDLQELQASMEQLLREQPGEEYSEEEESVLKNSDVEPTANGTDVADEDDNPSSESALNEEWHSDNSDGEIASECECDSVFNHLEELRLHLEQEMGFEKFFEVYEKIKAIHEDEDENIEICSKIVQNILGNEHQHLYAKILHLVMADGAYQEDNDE

[6] = target: Protein kinase C beta type (Homo sapiens) (UniProt P05771); assay: Inhibition of human PKCb2 at 100 nM using Histone H1 as substrate by [gamma-33P]-ATP assay
[7] = target: Serine/threonine-protein kinase Nek8 (Homo sapiens) (UniProt Q86SG6); assay: Inhibition of human NEK8 at 100 nM using casein as substrate by [gamma-33P]-ATP assay
[8] = target: AMP-activated protein kinase (AMPK) alpha-1/beta-1/gamma-1 (Homo sapiens) (UniProt P54619+Q9Y478+Q13131); assay: Inhibition of human AMPK (A1/B1/G1) at 100 nM using HMRSAMSGLHLVKRR as substrate by [gamma-33P]-ATP assay; assay type: protein-complex assay
[9] = target: Serine/threonine-protein kinase 17A (Homo sapiens) (UniProt Q9UEE5); assay: Inhibition of human DRAK1 at 100 nM using KKLNRTLSFAEPG as substrate by [gamma-33P]-ATP assay
[10] = target: Calcium/calmodulin-dependent protein kinase kinase 1 (Homo sapiens) (UniProt Q8N5S9); assay: Inhibition of human CAMKK1 at 100 nM using MBP as substrate by [gamma-33P]-ATP assay
Chain of Calcium/calmodulin-dependent protein kinase kinase 1 (Homo sapiens) (Q8N5S9 whole entry, looked up): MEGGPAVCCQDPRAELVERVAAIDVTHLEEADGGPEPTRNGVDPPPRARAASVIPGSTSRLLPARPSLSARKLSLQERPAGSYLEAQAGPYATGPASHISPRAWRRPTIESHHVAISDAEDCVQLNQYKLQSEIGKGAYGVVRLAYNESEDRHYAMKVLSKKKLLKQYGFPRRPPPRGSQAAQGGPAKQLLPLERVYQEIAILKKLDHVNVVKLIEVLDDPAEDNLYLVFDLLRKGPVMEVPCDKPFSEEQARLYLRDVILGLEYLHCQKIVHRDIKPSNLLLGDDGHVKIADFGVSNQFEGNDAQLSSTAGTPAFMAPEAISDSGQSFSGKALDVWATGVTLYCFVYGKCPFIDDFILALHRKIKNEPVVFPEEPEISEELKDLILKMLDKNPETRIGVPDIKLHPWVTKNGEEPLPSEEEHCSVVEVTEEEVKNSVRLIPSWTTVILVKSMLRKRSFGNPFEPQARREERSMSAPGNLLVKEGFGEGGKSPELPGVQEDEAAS

[11] = target: CDK8/Cyclin C (Homo sapiens) (UniProt P49336+P24863); assay: Inhibition of human CDK8/cyclin-C at 100 nM using KKKVSRSGLYRSPSMPENLNRPR as substrate by [gamma-33P]-ATP assay; assay type: protein-complex assay
[12] = target: Serine/threonine-protein kinase mTOR (Homo sapiens, UniProt P42345); assay: Inhibition of recombinant human N-terminal FLAG-tagged mTOR (1362 to end residues) using Ulight-4E-BP1 as substrate incubated for 30 mins by fluorescence assay
[13] = target: Serine/threonine-protein kinase 32B (Homo sapiens) (UniProt Q9NY57); assay: Inhibition of human STK32B at 100 nM using MBP as substrate by [gamma-33P]-ATP assay
Chain of Serine/threonine-protein kinase 32B (Homo sapiens) (Q9NY57 whole entry): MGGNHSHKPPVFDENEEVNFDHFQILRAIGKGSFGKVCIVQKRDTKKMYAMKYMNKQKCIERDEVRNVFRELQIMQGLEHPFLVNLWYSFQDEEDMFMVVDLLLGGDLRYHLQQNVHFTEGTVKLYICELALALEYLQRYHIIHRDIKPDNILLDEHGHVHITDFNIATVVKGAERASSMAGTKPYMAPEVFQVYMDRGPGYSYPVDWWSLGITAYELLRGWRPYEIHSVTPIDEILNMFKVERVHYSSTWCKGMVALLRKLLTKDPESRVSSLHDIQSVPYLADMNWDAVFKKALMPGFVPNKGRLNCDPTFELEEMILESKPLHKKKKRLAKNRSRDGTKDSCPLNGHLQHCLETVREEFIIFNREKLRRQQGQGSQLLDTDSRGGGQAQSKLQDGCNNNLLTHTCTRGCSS

[14] = target: Calcium/calmodulin-dependent protein kinase type 1G (Homo sapiens) (UniProt Q96NX5); assay: Inhibition of human CAMK1G at 100 nM using KKALRRQETVDAL as substrate by [gamma-33P]-ATP assay
Chain of Calcium/calmodulin-dependent protein kinase type 1G (Homo sapiens) (Q96NX5 whole entry): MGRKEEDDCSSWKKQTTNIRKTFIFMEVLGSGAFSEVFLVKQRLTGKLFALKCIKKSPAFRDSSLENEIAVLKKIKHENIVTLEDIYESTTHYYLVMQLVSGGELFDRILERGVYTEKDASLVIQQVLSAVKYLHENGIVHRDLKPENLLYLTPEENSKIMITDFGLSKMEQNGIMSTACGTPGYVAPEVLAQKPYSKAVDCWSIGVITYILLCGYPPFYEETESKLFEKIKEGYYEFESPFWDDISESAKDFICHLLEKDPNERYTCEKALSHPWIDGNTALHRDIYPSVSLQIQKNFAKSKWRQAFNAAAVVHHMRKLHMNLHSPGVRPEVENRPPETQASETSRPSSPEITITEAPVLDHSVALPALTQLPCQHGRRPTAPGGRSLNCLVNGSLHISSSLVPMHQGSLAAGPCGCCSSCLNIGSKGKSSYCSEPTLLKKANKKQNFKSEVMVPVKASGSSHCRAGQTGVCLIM

[15] = target: Megakaryocyte-associated tyrosine-protein kinase (Homo sapiens) (UniProt P42679); assay: Inhibition of human CTK at 100 nM using poly[Glu:Tyr] (4:1) as substrate by [gamma-33P]-ATP assay
[16] = target: [Pyruvate dehydrogenase (acetyl-transferring)] kinase isozyme 3, mitochondrial (Homo sapiens) (UniProt Q15120); assay: Inhibition of human PDK3 at 100 nM using MBP as substrate by [gamma-33P]-ATP assay
[17] = target: Fibroblast growth factor receptor 1 (Homo sapiens) (UniProt P11362); assay: Inhibition of human FGFR1 at 100 nM using KKKSPGEYVNIEFG as substrate by [gamma-33P]-ATP assay
[18] = target: Ribosomal protein S6 kinase beta-2 (Homo sapiens) (UniProt Q9UBS0); assay: Inhibition of human p70S6Kb at 100 nM using KKRNRTLTK as substrate by [gamma-33P]-ATP assay
[19] = target: Cyclin-dependent kinase 4/cyclin D1 (Homo sapiens) (UniProt P11802+P24385); assay: Inhibition of human CDK4/cyclin-D1 at 100 nM using RB protein as substrate by [gamma-33P]-ATP assay; assay type: protein-complex assay
[20] = target: Dual specificity protein kinase CLK2 (Homo sapiens) (UniProt P49760); assay: Inhibition of human CLK2 at 100 nM using MBP as substrate by [gamma-33P]-ATP assay
[21] = target: Dual specificity mitogen-activated protein kinase kinase 2 (Homo sapiens) (UniProt P36507); assay: Inhibition of human MEK2 at 100 nM using ERK2 as substrate by [gamma-33P]-ATP assay
[22] = target: Tau-tubulin kinase 2 (Homo sapiens) (UniProt Q6IQ55); assay: Inhibition of human TTBK2 at 100 nM using MBP as substrate by [gamma-33P]-ATP assay
[23] = target: Vascular endothelial growth factor receptor 1 (Homo sapiens) (UniProt P17948); assay: Inhibition of human FLT1 at 100 nM using poly[Glu:Tyr] (4:1) as substrate by [gamma-33P]-ATP assay
[24] = target: SRSF protein kinase 3 (Homo sapiens) (UniProt Q9UPE1); assay: Inhibition of human MSSK1 at 100 nM using GRSRSRSRSR as substrate by [gamma-33P]-ATP assay
[25] = target: Ribosomal protein S6 kinase alpha-5 (Homo sapiens) (UniProt O75582); assay: Inhibition of human MSK1 at 100 nM using GRPRTSSFAEG as substrate by [gamma-33P]-ATP assay
Chain of Ribosomal protein S6 kinase alpha-5 (Homo sapiens) (O75582 whole entry, looked up): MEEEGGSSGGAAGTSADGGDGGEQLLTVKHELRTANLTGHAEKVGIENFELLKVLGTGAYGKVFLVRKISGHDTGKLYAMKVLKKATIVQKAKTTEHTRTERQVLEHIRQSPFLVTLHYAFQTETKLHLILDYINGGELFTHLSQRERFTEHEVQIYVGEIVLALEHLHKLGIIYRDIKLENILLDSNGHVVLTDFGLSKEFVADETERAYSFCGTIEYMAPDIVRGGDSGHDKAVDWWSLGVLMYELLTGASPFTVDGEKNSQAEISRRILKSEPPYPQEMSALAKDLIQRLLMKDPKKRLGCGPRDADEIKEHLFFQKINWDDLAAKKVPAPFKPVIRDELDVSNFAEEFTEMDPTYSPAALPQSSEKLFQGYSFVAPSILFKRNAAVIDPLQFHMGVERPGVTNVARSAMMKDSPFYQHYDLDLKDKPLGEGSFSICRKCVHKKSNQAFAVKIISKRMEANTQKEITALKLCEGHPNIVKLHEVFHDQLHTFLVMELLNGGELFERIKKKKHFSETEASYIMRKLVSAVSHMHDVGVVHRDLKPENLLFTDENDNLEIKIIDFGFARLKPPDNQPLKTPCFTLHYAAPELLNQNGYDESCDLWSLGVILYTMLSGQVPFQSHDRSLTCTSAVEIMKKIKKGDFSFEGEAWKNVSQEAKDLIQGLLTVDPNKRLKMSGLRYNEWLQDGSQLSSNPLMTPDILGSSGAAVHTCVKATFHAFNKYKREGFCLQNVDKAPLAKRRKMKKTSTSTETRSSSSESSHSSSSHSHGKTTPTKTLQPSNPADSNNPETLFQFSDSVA

[26] = target: CDK1/Cyclin A (Homo sapiens) (UniProt P06493+P20248); assay: Inhibition of human CDK1/Cyclin-A at 100 nM using Histone H1 as substrate by [gamma-33P]-ATP assay; assay type: protein-complex assay
[27] = target: Serine/threonine-protein kinase PAK 2 (Homo sapiens) (UniProt Q13177); assay: Inhibition of human PAK2 at 100 nM using RRRLSFAEPG as substrate by [gamma-33P]-ATP assay
[28] = target: MAP kinase-activated protein kinase 3 (Homo sapiens) (UniProt Q16644); assay: Inhibition of human MAPKAPK3 at 100 nM using KKLNRTLSVA as substrate by [gamma-33P]-ATP assay

COc1ccc(N2C(=O)COc3ccc(-c4cnc(OC)c(NS(=O)(=O)c5ccc(F)cc5)c4)cc32)cc1
inhibition [1]: -2.82% | inhibition [2]: 7.83% | inhibition [3]: -1.63% | inhibition [4]: 4.8% | inhibition [5]: 19% | inhibition [6]: -6.74% | inhibition [7]: 14.4% | inhibition [8]: -4.91% | inhibition [9]: 0.44% | inhibition [10]: 14.3% | inhibition [11]: 2.74% | IC50 [12]: 0.0139 µM | inhibition [13]: -3.89% | inhibition [14]: 14.6% | inhibition [15]: -7.54% | inhibition [16]: 8.78% | inhibition [17]: -9.98% | inhibition [18]: 22.3% | inhibition [19]: 0.16% | inhibition [20]: 10.2% | inhibition [21]: 1.12% | inhibition [22]: -3.23% | inhibition [23]: 3.08% | inhibition [24]: 8.87% | inhibition [25]: 8.07% | inhibition [26]: 16% | inhibition [27]: 10.4% | inhibition [28]: 12.8%
